# Test results from patent US20250249012A1, “COMPOSITIONS AND METHODS FOR TREATING AND/OR PREVENTING A VIRAL INFECTION” (priority 2022, published 2025).
# Structures can show the parent of a compound that is named as a salt.
# Tested on: SARS-CoV-2 beta variant
# Experiment: […]; lung PCR and histopathology
# Type: in vivo, BALB C mice
compound,measurement,setting,value
N=C(N)c1ccc2cc(OC(=O)c3ccc(N=C(N)N)cc3)ccc2c1 [Nafamostat mesylate],antiviral effect upon sole administration,Nafamostat mesylate alone,partial antiviral inhibitory effect
same,antiviral effect of single drug,"mouse, in vivo",no effect
same,reduction of infection (PCR) by single drug,"mouse, in vivo",5-10 fold
N-[(E)-(3-methylphenyl)methylidencamino]-6-morpholin-4-yl-2-(2-pyridin-2-ylethoxy)pyrimidin-4-amine [Apilimod dimesylate],antiviral effect upon sole administration,Apilimod dimesylate alone,lack of antiviral effect
same,antiviral effect of single drug,"mouse, in vivo",no antiviral effect
